Data on 5 compounds can be found in ChEMBL document CHEMBL1150977, “A quantitative analysis of kinase inhibitor selectivity” (Nat Biotechnol, 2008).

Assay [1] deals with Fibroblast growth factor receptor 4 (Homo sapiens, UniProt P22455).
A further assay deals with Wee1-like protein kinase (Homo sapiens, UniProt P30291).
Assay [2] concerns the target T1, Inhibitor of nuclear factor kappa-B kinase subunit epsilon (Homo sapiens, UniProt Q14164).
T1 sequence (Q14164 whole entry): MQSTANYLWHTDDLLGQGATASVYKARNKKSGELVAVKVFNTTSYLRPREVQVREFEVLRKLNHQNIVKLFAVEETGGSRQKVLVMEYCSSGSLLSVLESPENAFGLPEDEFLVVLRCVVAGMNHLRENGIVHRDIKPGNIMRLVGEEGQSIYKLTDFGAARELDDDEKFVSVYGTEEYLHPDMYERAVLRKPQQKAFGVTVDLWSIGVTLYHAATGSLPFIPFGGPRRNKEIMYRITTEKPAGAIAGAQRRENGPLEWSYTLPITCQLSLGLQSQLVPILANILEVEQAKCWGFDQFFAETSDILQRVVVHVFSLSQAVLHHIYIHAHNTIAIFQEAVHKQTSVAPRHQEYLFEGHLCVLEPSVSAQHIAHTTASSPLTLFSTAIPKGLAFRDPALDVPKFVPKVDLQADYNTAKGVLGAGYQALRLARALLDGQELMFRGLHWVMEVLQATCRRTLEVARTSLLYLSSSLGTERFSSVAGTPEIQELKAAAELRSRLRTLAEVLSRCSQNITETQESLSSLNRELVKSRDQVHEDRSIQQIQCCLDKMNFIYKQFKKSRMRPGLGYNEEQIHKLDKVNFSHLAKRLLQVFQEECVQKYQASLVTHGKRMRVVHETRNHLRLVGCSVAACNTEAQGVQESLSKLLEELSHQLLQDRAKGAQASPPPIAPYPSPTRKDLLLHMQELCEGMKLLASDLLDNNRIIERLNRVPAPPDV

For assay [3], the target named is T2, Tyrosine-protein kinase receptor UFO (Homo sapiens, UniProt P30530).
T2 sequence (P30530 whole entry): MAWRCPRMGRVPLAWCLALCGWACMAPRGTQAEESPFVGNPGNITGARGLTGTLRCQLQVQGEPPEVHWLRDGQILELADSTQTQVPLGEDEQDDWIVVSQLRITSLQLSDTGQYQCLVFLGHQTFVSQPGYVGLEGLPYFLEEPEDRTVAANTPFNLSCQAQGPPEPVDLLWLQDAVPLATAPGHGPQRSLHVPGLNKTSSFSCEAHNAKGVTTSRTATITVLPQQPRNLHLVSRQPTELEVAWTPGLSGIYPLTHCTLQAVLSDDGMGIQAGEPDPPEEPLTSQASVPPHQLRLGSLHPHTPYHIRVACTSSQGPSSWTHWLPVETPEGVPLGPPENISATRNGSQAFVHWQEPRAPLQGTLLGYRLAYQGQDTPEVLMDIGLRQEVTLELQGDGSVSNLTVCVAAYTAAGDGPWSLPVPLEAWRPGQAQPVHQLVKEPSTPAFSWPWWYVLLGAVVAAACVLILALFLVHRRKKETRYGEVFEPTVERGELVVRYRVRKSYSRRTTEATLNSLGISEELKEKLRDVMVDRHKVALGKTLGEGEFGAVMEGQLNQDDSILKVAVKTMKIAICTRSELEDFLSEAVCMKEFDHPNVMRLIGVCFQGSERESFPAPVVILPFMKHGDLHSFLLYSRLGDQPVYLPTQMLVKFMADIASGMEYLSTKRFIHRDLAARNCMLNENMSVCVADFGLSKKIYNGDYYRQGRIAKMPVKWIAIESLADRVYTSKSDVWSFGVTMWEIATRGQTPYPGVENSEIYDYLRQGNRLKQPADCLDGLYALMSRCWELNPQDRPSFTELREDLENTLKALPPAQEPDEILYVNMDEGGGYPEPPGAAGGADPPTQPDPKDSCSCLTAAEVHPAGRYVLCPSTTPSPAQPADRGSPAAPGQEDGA

The target in the next assay is T3, Aurora kinase A (Homo sapiens, UniProt O14965).
T3 sequence (O14965 whole entry): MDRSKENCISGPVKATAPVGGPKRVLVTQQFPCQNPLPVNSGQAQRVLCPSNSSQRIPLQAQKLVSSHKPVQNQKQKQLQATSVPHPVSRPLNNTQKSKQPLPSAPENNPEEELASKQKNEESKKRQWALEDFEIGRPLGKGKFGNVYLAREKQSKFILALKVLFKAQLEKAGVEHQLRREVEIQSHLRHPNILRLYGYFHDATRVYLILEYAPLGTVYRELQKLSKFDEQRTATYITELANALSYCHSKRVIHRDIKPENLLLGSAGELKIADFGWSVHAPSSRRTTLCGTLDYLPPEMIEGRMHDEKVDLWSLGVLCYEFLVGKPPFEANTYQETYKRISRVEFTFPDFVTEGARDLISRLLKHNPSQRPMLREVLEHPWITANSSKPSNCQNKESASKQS

Assay [4] has as its target T4, Tyrosine-protein kinase ZAP-70 (Homo sapiens, UniProt P43403).
T4 sequence (P43403 whole entry): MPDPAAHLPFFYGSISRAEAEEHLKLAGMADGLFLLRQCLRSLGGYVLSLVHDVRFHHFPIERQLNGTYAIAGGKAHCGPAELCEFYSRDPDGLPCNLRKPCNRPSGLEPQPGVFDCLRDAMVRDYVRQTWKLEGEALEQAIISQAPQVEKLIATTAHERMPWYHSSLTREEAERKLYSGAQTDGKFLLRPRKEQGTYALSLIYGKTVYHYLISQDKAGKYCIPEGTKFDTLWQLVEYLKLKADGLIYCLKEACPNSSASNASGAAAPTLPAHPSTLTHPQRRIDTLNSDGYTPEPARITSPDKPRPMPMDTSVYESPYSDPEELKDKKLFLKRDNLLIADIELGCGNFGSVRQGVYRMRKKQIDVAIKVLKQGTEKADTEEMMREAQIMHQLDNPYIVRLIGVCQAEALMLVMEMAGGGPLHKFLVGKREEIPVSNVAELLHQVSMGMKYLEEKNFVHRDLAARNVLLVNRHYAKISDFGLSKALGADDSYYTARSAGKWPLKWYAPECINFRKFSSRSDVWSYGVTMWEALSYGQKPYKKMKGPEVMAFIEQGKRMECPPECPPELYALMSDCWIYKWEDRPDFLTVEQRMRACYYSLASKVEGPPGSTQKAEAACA

Chain of Wee1-like protein kinase (P30291 whole entry): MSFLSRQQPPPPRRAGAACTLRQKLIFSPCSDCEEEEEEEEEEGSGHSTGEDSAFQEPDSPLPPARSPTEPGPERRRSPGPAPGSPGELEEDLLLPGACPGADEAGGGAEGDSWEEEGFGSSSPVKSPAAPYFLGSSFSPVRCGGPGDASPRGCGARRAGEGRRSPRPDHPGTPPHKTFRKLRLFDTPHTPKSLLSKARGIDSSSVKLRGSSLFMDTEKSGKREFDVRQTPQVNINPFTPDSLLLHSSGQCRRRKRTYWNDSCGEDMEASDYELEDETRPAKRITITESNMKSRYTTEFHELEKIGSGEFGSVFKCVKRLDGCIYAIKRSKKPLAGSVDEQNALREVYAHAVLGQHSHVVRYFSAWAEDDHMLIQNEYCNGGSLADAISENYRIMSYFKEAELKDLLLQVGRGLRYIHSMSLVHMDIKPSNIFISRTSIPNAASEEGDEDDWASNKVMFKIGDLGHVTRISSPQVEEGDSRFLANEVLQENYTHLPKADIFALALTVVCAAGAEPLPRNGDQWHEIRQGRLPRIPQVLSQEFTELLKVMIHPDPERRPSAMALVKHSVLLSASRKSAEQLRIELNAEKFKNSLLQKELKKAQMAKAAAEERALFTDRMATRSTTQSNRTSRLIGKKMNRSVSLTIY
Chain of Fibroblast growth factor receptor 4 (P22455 whole entry): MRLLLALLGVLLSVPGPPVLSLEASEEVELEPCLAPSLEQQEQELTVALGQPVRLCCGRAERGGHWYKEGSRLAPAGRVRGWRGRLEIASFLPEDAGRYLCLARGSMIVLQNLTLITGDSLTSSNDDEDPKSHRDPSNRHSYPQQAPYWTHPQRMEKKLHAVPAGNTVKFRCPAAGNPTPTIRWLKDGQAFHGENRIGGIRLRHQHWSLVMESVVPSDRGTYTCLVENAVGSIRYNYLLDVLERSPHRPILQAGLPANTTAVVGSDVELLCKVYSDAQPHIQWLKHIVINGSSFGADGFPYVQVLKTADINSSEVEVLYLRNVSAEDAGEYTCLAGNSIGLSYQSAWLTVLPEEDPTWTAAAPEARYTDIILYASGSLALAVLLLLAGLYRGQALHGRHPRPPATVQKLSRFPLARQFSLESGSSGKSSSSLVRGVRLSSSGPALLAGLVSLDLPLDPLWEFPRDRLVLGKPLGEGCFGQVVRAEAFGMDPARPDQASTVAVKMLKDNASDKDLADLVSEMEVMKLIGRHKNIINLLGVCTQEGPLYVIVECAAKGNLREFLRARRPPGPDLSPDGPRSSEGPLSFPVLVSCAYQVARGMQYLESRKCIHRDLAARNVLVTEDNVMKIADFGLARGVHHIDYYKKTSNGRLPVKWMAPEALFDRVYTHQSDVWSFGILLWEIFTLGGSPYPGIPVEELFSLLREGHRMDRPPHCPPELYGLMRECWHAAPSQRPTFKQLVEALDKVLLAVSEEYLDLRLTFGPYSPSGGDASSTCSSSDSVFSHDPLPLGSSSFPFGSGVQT

The term Kd denotes a measure of binding affinity in units of concentration. Higher therefore signals a looser complex. On to `COCC(=O)NC/C=C/c1ccc2ncnc(Nc3ccc(Oc4ccc(C)nc4)c(C)c3)c2c1` [CP-724714], for which the Kd (in assay [1]; at Wee1-like protein kinase; in assay [2]; in assay [3]; at Aurora kinase A; in assay [4]) was over 10 µM each time.
`Nc1nc(Nc2ccc(S(N)(=O)=O)cc2)nn1C(=O)c1c(F)cccc1F` [JNJ-7706621]: the Kd (in assay [1]; on Wee1-like protein kinase; in assay [4]) was over 10 µM each time.
As to `CCOc1cc2ncc(C#N)c(Nc3ccc(F)c(Cl)c3)c2cc1NC(=O)/C=C/CN(C)C` [PELITINIB], the Kd in assay [1] is over 10 µM; in assay [2] it was over 10 µM; in assay [3] it was 0.92 µM; on Aurora kinase A it was over 10 µM; in assay [4] it was over 10 µM.
Take `Oc1ccc(-c2nc(-c3ccncc3)c(-c3ccc(F)cc3)[nH]2)cc1` [SB-202190]: the Kd (in assay [1]; at Wee1-like protein kinase; in assay [2]; in assay [3]; at Aurora kinase A; in assay [4]) was over 10 µM throughout.
`NC(=O)c1ccc(-c2nc(-c3ccc4c(c3)OCO4)c(-c3ccccn3)[nH]2)cc1` [SB-431542]: the Kd (in assay [1]; at Wee1-like protein kinase; in assay [2]; in assay [3]; at Aurora kinase A; in assay [4]) was over 10 µM each time.
